# Laboratory results: PubChem BioAssay AID2060892 (Molecular Pharmacology Branch, DTP, NCI, 2025)
# pIC50: −log10 of the molar value.
# Tested on: HOP-62 complex spheroids with HUVEC/MSC, viability
# Test: Anticancer human tumor HOP-62 cell line growth inhibition [RAS];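 also: spheroids exposed to agents for seven days before readout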;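 as to viability, T/C: 100% = DMSO vehicle control viability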
# Details: for pIC50: curve of first compound; for viability, T/C: stronger effect = lower value
# Procedure, shortened: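 Tumour cells grown as complex spheroids with HUVEC endothelial cells and mesenchymal stem cells, treated with RAS pathway inhibitor combinations. Each agent spans half-log steps from near clinical Cmax, or 10 microM where Cmax is unknown.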
compound,measurement,setting,value
C=CC(=O)N1CCN(c2nc(OCC3CCCN3C)nc3c(F)c(-c4nc(N)cc(C)c4C(F)(F)F)c(Cl)cc23)C(C)C1 (configuration not stated) + CCn1c(-c2cc(N3CCN(C)CC3)cnc2C(C)OC)c2c3cc(ccc31)-c1csc(n1)CC(NC(=O)C1CC1C)C(=O)N1CCCC(N1)C(=O)OCC(C)(C)C2,pIC50,second compound 0.000949 µM,< 6.00
same,pIC50,second compound 0.003 µM,< 6.00
same,pIC50,second compound 0.00949 µM,< 6.00
same,pIC50,second compound 0.03 µM,> 8.50
same,pIC50,second compound 0.0949 µM,> 8.50
same,pIC50,second compound 0.3 µM,> 8.50
same,"viability, T/C","second compound 0.000949 µM, first compound 0.00316 µM",92.6%
same,"viability, T/C","second compound 0.000949 µM, first compound 0.01 µM",85.2%
same,"viability, T/C","second compound 0.000949 µM, first compound 0.0316 µM",66.2%
same,"viability, T/C","second compound 0.000949 µM, first compound 0.1 µM",88.2%
same,"viability, T/C","second compound 0.000949 µM, first compound 0.316 µM",84%
same,"viability, T/C","second compound 0.000949 µM, first compound 1 µM",66.1%
same,"viability, T/C","second compound 0.003 µM, first compound 0.00316 µM",75.6%
same,"viability, T/C","second compound 0.003 µM, first compound 0.01 µM",75.9%
same,"viability, T/C","second compound 0.003 µM, first compound 0.0316 µM",69.2%
same,"viability, T/C","second compound 0.003 µM, first compound 0.1 µM",74.2%
same,"viability, T/C","second compound 0.003 µM, first compound 0.316 µM",78.5%
same,"viability, T/C","second compound 0.003 µM, first compound 1 µM",54.5%
same,"viability, T/C","second compound 0.00949 µM, first compound 0.00316 µM",70.7%
same,"viability, T/C","second compound 0.00949 µM, first compound 0.01 µM",52.2%
same,"viability, T/C","second compound 0.00949 µM, first compound 0.0316 µM",52.9%
same,"viability, T/C","second compound 0.00949 µM, first compound 0.1 µM",59.8%
same,"viability, T/C","second compound 0.00949 µM, first compound 0.316 µM",49.7%
same,"viability, T/C","second compound 0.00949 µM, first compound 1 µM",46.1%
same,"viability, T/C","second compound 0.03 µM, first compound 0.00316 µM",46.8%
same,"viability, T/C","second compound 0.03 µM, first compound 0.01 µM",43.2%
same,"viability, T/C","second compound 0.03 µM, first compound 0.0316 µM",43.5%
same,"viability, T/C","second compound 0.03 µM, first compound 0.1 µM",32.2%
same,"viability, T/C","second compound 0.03 µM, first compound 0.316 µM",31.3%
same,"viability, T/C","second compound 0.03 µM, first compound 1 µM",38.5%
same,"viability, T/C","second compound 0.0949 µM, first compound 0.00316 µM",35.6%
same,"viability, T/C","second compound 0.0949 µM, first compound 0.01 µM",37.1%
same,"viability, T/C","second compound 0.0949 µM, first compound 0.0316 µM",34%
same,"viability, T/C","second compound 0.0949 µM, first compound 0.1 µM",36.7%
same,"viability, T/C","second compound 0.0949 µM, first compound 0.316 µM",29.2%
same,"viability, T/C","second compound 0.0949 µM, first compound 1 µM",27.2%
same,"viability, T/C","second compound 0.3 µM, first compound 0.00316 µM",39.4%
same,"viability, T/C","second compound 0.3 µM, first compound 0.01 µM",52.7%
same,"viability, T/C","second compound 0.3 µM, first compound 0.0316 µM",37.7%
same,"viability, T/C","second compound 0.3 µM, first compound 0.1 µM",28.8%
same,"viability, T/C","second compound 0.3 µM, first compound 0.316 µM",31.7%
same,"viability, T/C","second compound 0.3 µM, first compound 1 µM",31.6%
